Several values for one entry are separate records, joined by “and”; a condition that tells them apart may be missing. Identical values can stand only once.
Key:
mice [1] = assay: Nesting, source data sheets Nesting (mouse line not given); assay type: in vivo; parameters: key to Nesting Score AVG (of three observers) / Nesting Score AVG, group mean / Nesting Score / Nesting Score AVG: 0 = nestlet untouched to 5 = near perfect nest; key to Nesting Score (NICK) / Nesting Score (MICHAELINE) / Nesting Score(MAX) / Nesting Score (KORLISS): 0: nestlet untouched; 1: nestlet hardly touched (more than 90% intact); 2: nestlet partially torn (50–90% intact); 3: mostly shredded but no identifiable nest, less than 50% intact but less than 90% in a single quarter of the cage; 4: An identifiable but flat nest, more than 90% torn and material is gathered in a single quarter of the cage; 5: A near perfect nest, more than 90% of the nestlet is torn and the nest is a crater, with walls higher than the mouse body height; settings: for Nesting Score AVG (of three observers) / Nestlet Weight / Nesting Score(MAX) / Nesting Score (MICHAELINE) / Nesting Score (NICK): individual mice, listed as 143; for Nestlet Weight: in g (unit assumed); for Nesting Score(MAX): observer MAX; for Nesting Score (MICHAELINE): observer MICHAELINE; for Nesting Score (NICK): observer NICK
Description: Mice were singly housed in standard cages overnight (6 pm–6 am) with a 3-gram cloth nestlet and allowed to freely behave. The next day, nestlets were weighed and photographed, and amount of nestlet shredding was recorded by three observers based on the following scale: 0—nestlet untouched, 1—nestlet hardly touched (more than 90% intact), 2—nestlet partially torn (50–90% intact), 3—mostly shredded but no identifiable nest, less than 50% intact but less than 90% in a single quarter of the cage, 4—An identifiable but flat nest, more than 90% torn and material is gathered in a single quarter of the cage, 5—A near perfect nest, more than 90% of the nestlet is torn and the nest is a crater, with walls higher than the mouse body height.

DDR1 = target: T1, DDR1 (Homo sapiens, UniProt Q08345); assay: KINOMEscan competition binding, DDR1; settings: 10 µM compound
T1 construct: DNA label for qPCR read-out (T7 phage fusion or DNA tag); purchased Eurofins DiscoverX Corporation; host or cells: T7 phage in E. coli (BL21-derived) or HEK-293
T1 sequence (Q08345 19-913): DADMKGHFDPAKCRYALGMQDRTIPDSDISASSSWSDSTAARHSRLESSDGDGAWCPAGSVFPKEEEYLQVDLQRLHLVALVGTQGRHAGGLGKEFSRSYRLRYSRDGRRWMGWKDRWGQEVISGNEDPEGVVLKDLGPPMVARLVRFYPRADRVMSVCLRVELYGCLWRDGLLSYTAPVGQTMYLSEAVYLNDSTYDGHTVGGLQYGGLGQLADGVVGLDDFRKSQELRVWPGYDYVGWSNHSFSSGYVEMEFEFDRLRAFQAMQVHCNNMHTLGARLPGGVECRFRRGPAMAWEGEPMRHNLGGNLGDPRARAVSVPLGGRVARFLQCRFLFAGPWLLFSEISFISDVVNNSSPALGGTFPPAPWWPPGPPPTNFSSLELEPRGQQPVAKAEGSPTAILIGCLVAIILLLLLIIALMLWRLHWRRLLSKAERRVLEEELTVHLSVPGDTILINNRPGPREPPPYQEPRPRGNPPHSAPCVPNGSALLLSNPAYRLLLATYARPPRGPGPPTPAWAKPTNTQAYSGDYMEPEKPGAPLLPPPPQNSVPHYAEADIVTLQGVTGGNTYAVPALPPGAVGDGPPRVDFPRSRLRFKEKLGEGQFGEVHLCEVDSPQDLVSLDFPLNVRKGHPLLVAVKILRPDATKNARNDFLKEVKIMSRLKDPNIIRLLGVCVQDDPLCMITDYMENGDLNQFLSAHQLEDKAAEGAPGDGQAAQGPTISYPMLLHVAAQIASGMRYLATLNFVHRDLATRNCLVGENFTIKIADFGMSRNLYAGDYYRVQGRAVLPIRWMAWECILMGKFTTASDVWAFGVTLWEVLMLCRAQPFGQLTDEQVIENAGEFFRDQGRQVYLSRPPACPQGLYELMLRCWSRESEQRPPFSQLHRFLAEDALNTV
Description: The KINOMEscan screening platform (Eurofins DiscoverX Corporation) was performed using active site-directed competition binding assay to quantitatively measure interactions between BK40143 and BK40197 and more than 450 human kinases and disease relevant mutant variants. […] Screening “hits” are identified by measuring the amount of kinase captured in test (BK40143 and BK40197) versus control samples by using a quantitative and ultra-sensitive qRT-PCR method that detects the associated DNA label. BK40143 and BK40197 were screened at 10 µM concentration, and results for primary screen binding interactions were reported as “% Ctrl” (POC), where lower numbers indicate stronger hits and calculated as follows: [test compound signal−positive control signal/negative control signal−positive control signal]×100
negative control = DMSO (100% Ctrl)
positive control = control compound (0% Ctrl)
Based on screening data from of profiled compounds, a proportional relationship between primary screening results and corresponding compound/target affinities can be described as binding constants (Kd values) for the indicated ranges of POC values with tighter binding (higher affinity) interactions associated with lower POC values and weaker binding (lower affinity) associated with higher POC values. Briefly, kinase-tagged T7 phage strains were grown in parallel in 24-well blocks in an E. coli host derived from the BL21 strain. E. coli were grown to log-phase and infected with T7 phage from a frozen stock (multiplicity of infection = 0.4) and incubated with shaking at 32°C until lysis (90–150 min). The lysates were centrifuged (6,000g) and filtered (0.2 μm) to remove cell debris. The remaining kinases were produced in HEK-293 cells and subsequently tagged with DNA for qRT-PCR detection. Streptavidin-coated magnetic beads were treated with biotinylated small molecule ligands for 30 min at RT to generate affinity resins for kinase assays. The liganded beads were blocked with excess biotin and washed with blocking buffer (1% BSA, 0.05% Tween 20, 1 mM DTT; SeaBlock [Pierce]) to remove unbound ligand and to reduce non-specific phage binding. Binding reactions were assembled by combining kinases, liganded affinity beads, and test compounds in 1x binding buffer (20% 0.17x PBS, 0.05% Tween 20, 6 mM DTT; SeaBlock). Test compounds were prepared as 100x stocks in 100% DMSO and directly diluted into the assay. All reactions were performed in polypropylene 384-well plates in a final volume of 0.02 ml. The assay plates were incubated at RT with shaking for 1 h and the affinity beads were washed with wash buffer (1x PBS, 0.05% Tween 20). […] The kinase concentration in the eluates was measured by qRT-PCR.

mice [2] = assay: Elevated plus maze, source data sheets EPM (mouse line not given); assay type: in vivo; settings: for EPM Trial 1 Closed Entries / EPM Trial 1 Open Entries / EPM Trial 2 Closed Entries / EPM Trial 2 Open Entries / EPM Trial 2 Time Closed / EPM Trial 1 Time Closed / EPM Trial 1 Time Open / EPM Trial 2 Time Open / EPM Totals Closed Entries / EPM Totals Open Entries / EPM Totals Time Closed / EPM Totals Time Open: individual mice; for EPM Trial 2 Time Closed / EPM Totals Time Closed / EPM Totals Time Open / Time Open: in s (unit assumed); for EPM Trial 1 Time Closed / EPM Trial 1 Time Open / EPM Trial 2 Time Open / Time Closed / Time Closed AVG / Time Open AVG: in s; for EPM Totals Closed Entries / EPM Totals Open Entries / EPM Totals Time Closed / EPM Totals Time Open: sum of trials 1 and 2; for Closed Entries AVG / Open Entries AVG / Time Closed AVG / Time Open AVG: group average
Description: The elevated plus maze was performed using a standard set up, with two enclosed arms and two open arms. Mice were placed at the intersection of the open and closed arms and allowed to freely explore for 5 min, two times. Time spent in the open and closed arms and number of entries into the open and closed arms were recorded.

[3] = 2.5mg/kg, listed as 143, female mice
[4] = 2.5mg/kg, listed as 143, male mice
[5] = 5.0mg/kg, listed as 143, female mice
[6] = 5.0mg/kg, listed as 143, male mice
[7] = Totals (Trial 1 + Trial 2), individual animals, listed as 143
[8] = Trial 1, individual animals, listed as 143
[9] = Trial 2, individual animals, listed as 143

Cc1cccc(-c2cc3nccc(Nc4ccccc4)c3s2)c1 [BK40143]
Nesting Score AVG, group mean (mice [1]; 2.5mg/kg): 0.9048 | Nesting Score AVG (of three observers) (mice [1]; 2.5mg/kg): 0 and 1.333 and 2.667 and 1 | Nestlet Weight (mice [1]; 2.5mg/kg): 2.6 and 2.8 and 2.7 and 0.9 and 2.5 | Nesting Score(MAX) (mice [1]; 2.5mg/kg): 0 and 2 (nestlet partially torn (50–90% intact)) and 3 (mostly shredded but no identifiable nest, less than 50% intact but less than 90% in a single quarter of the cage) and 1 (nestlet hardly touched (more than 90% intact)) | Nesting Score (MICHAELINE) (mice [1]; 2.5mg/kg): 0 and 1 (nestlet hardly touched (more than 90% intact)) and 2 (nestlet partially torn (50–90% intact)) | Nesting Score (NICK) (mice [1]; 2.5mg/kg): 0 and 1 (nestlet hardly touched (more than 90% intact)) and 3 (mostly shredded but no identifiable nest, less than 50% intact but less than 90% in a single quarter of the cage) | Nesting Score AVG, group mean (mice [1]; 5.0mg/kg): 1.067 | Nesting Score AVG (of three observers) (mice [1]; 5.0mg/kg): 1.333 and 0.3333 and 1 and 2 and 0.6667 and 3.667 and 0 | Nestlet Weight (mice [1]; 5.0mg/kg): 2.5 and 2.7 and 2.1 and 2.6 and 2.9 and 0 | Nesting Score(MAX) (mice [1]; 5.0mg/kg): 2 (nestlet partially torn (50–90% intact)) and 1 (nestlet hardly touched (more than 90% intact)) and 4 and 0 | Nesting Score (MICHAELINE) (mice [1]; 5.0mg/kg): 1 (nestlet hardly touched (more than 90% intact)) and 0 and 2 (nestlet partially torn (50–90% intact)) and 3 (mostly shredded but no identifiable nest, less than 50% intact but less than 90% in a single quarter of the cage) | Nesting Score (NICK) (mice [1]; 5.0mg/kg): 1 (nestlet hardly touched (more than 90% intact)) and 0 and 2 (nestlet partially torn (50–90% intact)) and 4 | inhibition at 10 µM (DDR1): 69% | remaining binding at 10 µM (DDR1; lower = stronger binding, read-out: DDR1 %Ctrl @ 10000nM): 31% | EPM Trial 1 Closed Entries (mice [2]; [3]): 7 and 2 and 1 and 3 and 5 | EPM Trial 1 Open Entries (mice [2]; [3]): 6 and 2 and 1 and 5 and 3 | EPM Trial 2 Closed Entries (mice [2]; [3]): 2 and 8 and 1 and 5 | EPM Trial 2 Open Entries (mice [2]; [3]): 1 and 6 and 0 and 4 | EPM Trial 2 Time Closed (mice [2]; [3]): 296 and 240 and 300 and 257 and 277 | EPM Trial 2 Time Closed (mice [2]; [4]): 251 | EPM Trial 1 Time Closed (mice [2]; [3]): 280 and 287 and 293 and 268 and 258 and 222 | EPM Trial 1 Time Open (mice [2]; [3]): 20 and 13 and 7 and 32 and 42 and 78 | EPM Trial 2 Time Open (mice [2]; [3]): 4 and 60 and 0 and 43 and 23 | EPM Trial 1 Time Closed (mice [2]; [4]): 255 | EPM Trial 1 Time Open (mice [2]; [4]): 45 | EPM Trial 2 Time Open (mice [2]; [4]): 49 | EPM Trial 1 Closed Entries (mice [2]; [4]): 10 | EPM Trial 1 Open Entries (mice [2]; [4]): 10 | EPM Trial 2 Closed Entries (mice [2]; [4]): 6 | EPM Trial 2 Open Entries (mice [2]; [4]): 8 | EPM Totals Closed Entries (mice [2]; [3]): 9 and 10 and 2 and 3 and 8 and 11 | EPM Totals Open Entries (mice [2]; [3]): 7 and 8 and 1 and 5 and 10 | EPM Totals Time Closed (mice [2]; [3]): 576 and 527 and 593 and 568 and 515 and 499 | EPM Totals Time Open (mice [2]; [3]): 24 and 73 and 7 and 32 and 85 and 101 | EPM Totals Time Closed (mice [2]; [4]): 506 | EPM Totals Time Open (mice [2]; [4]): 94 | EPM Totals Closed Entries (mice [2]; [4]): 16 | EPM Totals Open Entries (mice [2]; [4]): 18 | EPM Trial 1 Closed Entries (mice [2]; [5]): 2 and 3 and 5 and 4 | EPM Trial 1 Open Entries (mice [2]; [5]): 1 and 5 and 4 | EPM Trial 2 Closed Entries (mice [2]; [5]): 1 and 6 and 13 | EPM Trial 2 Open Entries (mice [2]; [5]): 0 and 6 and 1 and 7 | EPM Trial 2 Time Closed (mice [2]; [5]): 300 and 219 and 298 and 244 | EPM Trial 2 Time Closed (mice [2]; [6]): 237 and 280 and 238 | EPM Trial 1 Time Closed (mice [2]; [5]): 297 and 266 and 284 and 290 and 268 and 259 | EPM Trial 1 Time Open (mice [2]; [5]): 3 and 34 and 16 and 10 and 32 and 41 | EPM Trial 2 Time Open (mice [2]; [5]): 0 and 81 and 2 and 56 | EPM Trial 1 Time Closed (mice [2]; [6]): 300 and 261 and 228 and 166 | EPM Trial 1 Time Open (mice [2]; [6]): 0 and 39 and 72 and 134 | EPM Trial 2 Time Open (mice [2]; [6]): 63 and 20 and 62 | EPM Trial 1 Closed Entries (mice [2]; [6]): 1 and 6 and 9 | EPM Trial 1 Open Entries (mice [2]; [6]): 0 and 6 and 9 | EPM Trial 2 Closed Entries (mice [2]; [6]): 7 and 8 | EPM Trial 2 Open Entries (mice [2]; [6]): 3 and 8 | EPM Totals Closed Entries (mice [2]; [5]): 3 and 9 and 6 and 17 | EPM Totals Open Entries (mice [2]; [5]): 1 and 11 and 4 and 5 | EPM Totals Time Closed (mice [2]; [5]): 597 and 485 and 584 and 590 and 566 and 503 | EPM Totals Time Open (mice [2]; [5]): 3 and 115 and 16 and 10 and 34 and 97 | EPM Totals Time Closed (mice [2]; [6]): 600 and 498 and 508 and 404 | EPM Totals Time Open (mice [2]; [6]): 0 and 102 and 92 and 196 | EPM Totals Closed Entries (mice [2]; [6]): 2 and 11 and 13 | EPM Totals Open Entries (mice [2]; [6]): 0 and 9 and 17 | Closed Entries (mice [2]; [7]): 15 and 5 and 8 and 6 and 9 and 14 and 11 | Open Entries (mice [2]; [7]): 10 and 7 and 8 and 6 and 12 and 17 | Time Closed (mice [2]; [7]): 435 and 498 and 481 and 538 and 465 and 421 and 544 and 262 and 497 and 529 | Time Open (mice [2]; [7]): 165 and 102 and 119 and 62 and 135 and 179 and 56 and 338 and 103 and 71 | Closed Entries AVG (mice [2]; Totals): 11.2 | Open Entries AVG (mice [2]; Totals): 9.1 | Time Closed AVG (mice [2]; Totals): 467 | Time Open AVG (mice [2]; Totals): 133 | Closed Entries AVG (mice [2]; Trial 1): 6.6 | Open Entries AVG (mice [2]; Trial 1): 5.8 | Time Closed AVG (mice [2]; Trial 1): 206.8 | Time Open AVG (mice [2]; Trial 1): 93.2 | Closed Entries (mice [2]; [8]): 9 and 2 and 6 and 3 and 5 and 8 and 10 and 7 | Open Entries (mice [2]; [8]): 7 and 3 and 6 and 5 and 4 and 9 | Time Closed (mice [2]; [8]): 160 and 258 and 206 and 186 and 167 and 254 and 112 and 227 and 240 | Time Open (mice [2]; [8]): 140 and 42 and 94 and 114 and 133 and 46 and 188 and 73 and 60 | Closed Entries AVG (mice [2]; Trial 2): 4.6 | Open Entries AVG (mice [2]; Trial 2): 3.3 | Time Closed AVG (mice [2]; Trial 2): 260.2 | Time Open AVG (mice [2]; Trial 2): 39.8 | Closed Entries (mice [2]; [9]): 6 and 3 and 2 and 4 and 7 | Open Entries (mice [2]; [9]): 3 and 4 and 2 and 5 and 1 and 8 | Time Closed (mice [2]; [9]): 275 and 240 and 280 and 279 and 254 and 290 and 150 and 270 and 289 | Time Open (mice [2]; [9]): 25 and 60 and 20 and 21 and 46 and 10 and 150 and 30 and 11 | Time/Entry (mice [2]; total Time Open per total Open Entries, individual animals, listed as 143): 16.5 and 14.5714 and 14.875 and 8.857 and 22.5 and 14.9167 and 9.333 and 19.8824 and 10.3 and 8.875
